Laboratory results taken from ChEMBL document CHEMBL3286266, “Development of novel benzomorpholine class of diacylglycerol acyltransferase I inhibitors” (ACS Med Chem Lett, 2014).
Converted amounts (≈) assume the structure as drawn. The source made the active and inactive calls. No cut-off for these calls is given here.

Columns and labels:
[1] = molecular target: T1, Diacylglycerol O-acyltransferase 2 (Homo sapiens) (UniProt Q96PD7); test: Inhibition of human DGAT2 expressed in Sf9 insect cells using 1,2-dioleoyl-sn-glycerol and [14C]-palmitoyl-CoA substrate by scintillation counting analysis
T1 sequence (whole entry): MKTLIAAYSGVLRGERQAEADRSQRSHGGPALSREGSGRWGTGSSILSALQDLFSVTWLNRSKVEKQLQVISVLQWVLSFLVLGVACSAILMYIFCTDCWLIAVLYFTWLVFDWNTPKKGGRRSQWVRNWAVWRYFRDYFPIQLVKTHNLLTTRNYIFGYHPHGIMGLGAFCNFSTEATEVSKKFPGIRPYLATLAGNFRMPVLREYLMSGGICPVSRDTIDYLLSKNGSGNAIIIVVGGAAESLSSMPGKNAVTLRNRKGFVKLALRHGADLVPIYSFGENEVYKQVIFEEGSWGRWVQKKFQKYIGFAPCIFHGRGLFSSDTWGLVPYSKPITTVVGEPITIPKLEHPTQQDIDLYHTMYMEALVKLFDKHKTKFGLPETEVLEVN

[2] = Solubility of the compound; type: physicochemical
[3] = molecular target: T2, Sterol O-acyltransferase 2 (Homo sapiens, UniProt O75908); test: Inhibition of human ACAT2 expressed in Sf9 insect cells using [14C]-oleoyl-CoA by scintillation counting analysis
T2 sequence (O75908 whole entry): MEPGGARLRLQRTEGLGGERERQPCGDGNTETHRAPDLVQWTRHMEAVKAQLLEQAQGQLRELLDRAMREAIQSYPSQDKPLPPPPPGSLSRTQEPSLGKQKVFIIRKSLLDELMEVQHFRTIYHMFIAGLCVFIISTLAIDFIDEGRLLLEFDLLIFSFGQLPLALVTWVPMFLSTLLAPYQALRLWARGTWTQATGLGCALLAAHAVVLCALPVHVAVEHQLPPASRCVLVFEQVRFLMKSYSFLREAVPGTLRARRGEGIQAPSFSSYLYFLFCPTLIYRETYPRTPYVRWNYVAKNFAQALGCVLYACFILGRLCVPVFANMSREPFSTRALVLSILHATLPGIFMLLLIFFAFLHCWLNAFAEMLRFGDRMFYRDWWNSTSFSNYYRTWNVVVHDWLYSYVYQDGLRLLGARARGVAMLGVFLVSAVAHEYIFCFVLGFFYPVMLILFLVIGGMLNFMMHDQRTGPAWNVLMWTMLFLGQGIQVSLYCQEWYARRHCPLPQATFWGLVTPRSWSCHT

[4] = Permeability in human Caco2 cells; type: ADME, cell-based; details: Caco-2, read-out: permeability
Mus musculus [5] = test: Reduction in triglycerides level in mouse at 3 mg/kg, po after 2 hrs by postprandial triglyceride assay; type: functional
Mus musculus [6] = test: Reduction in triglycerides level in mouse at 10 mg/kg, po after 2 hrs by postprandial triglyceride assay; type: functional
[7] = AUC in rat at 10 mg/kg; type: ADME, organism-based; parameters: dose 10 mg/kg; details: plasma
[8] = molecular target: T3, Diacylglycerol O-acyltransferase 1 (Mus musculus, UniProt Q9Z2A7); test: Inhibition of mouse DGAT1 expressed in Sf9 insect cells using 1,2-dioleoyl-sn-glycerol and [14C]-palmitoyl-CoA substrate by scintillation counting analysis
T3 sequence (Q9Z2A7 whole entry): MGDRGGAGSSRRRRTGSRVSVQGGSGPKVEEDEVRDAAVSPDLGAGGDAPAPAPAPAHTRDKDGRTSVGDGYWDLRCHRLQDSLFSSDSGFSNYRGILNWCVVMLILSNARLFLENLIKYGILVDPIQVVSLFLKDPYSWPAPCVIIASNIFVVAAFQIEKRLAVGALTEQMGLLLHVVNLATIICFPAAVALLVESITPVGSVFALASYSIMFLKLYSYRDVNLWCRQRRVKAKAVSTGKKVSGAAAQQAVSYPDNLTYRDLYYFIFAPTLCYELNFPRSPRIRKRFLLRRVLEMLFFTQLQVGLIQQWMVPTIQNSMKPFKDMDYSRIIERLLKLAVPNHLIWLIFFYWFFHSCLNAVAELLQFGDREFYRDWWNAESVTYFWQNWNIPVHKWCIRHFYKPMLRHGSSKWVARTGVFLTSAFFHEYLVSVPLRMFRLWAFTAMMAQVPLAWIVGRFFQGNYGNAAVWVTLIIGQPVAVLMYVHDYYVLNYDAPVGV

With `O=C(O)C[C@H]1CC[C@H](c2ccc(-c3ccc4c(c3)OCCN4C(=O)Nc3ccc(F)cc3C(F)(F)F)cc2)CC1` the inhibition [1] was “inactive”, the solubility [2] was 100 µM (≈ 55.7 µg/mL) and the IC50 [3] was 9.6 µM. It also gave a Papp [4] of 23.9 ×10⁻⁶ cm/s, an inhibition in vivo at 3 mg/kg (Mus musculus [5]) of 59% and an inhibition in vivo at 10 mg/kg (Mus musculus [6]) of 91%. For the same compound, the AUC [7] was 23 µM·h and the IC50 [8] was 0.035 µM.
